Data set [1] deals with PGE2. Put plainly: PGE2 release in LPS-stimulated BV2 microglial cells, competitive binding immunoassay. Format: cell-based. The note with it: for PGE2 release (ng/ml) at 48 h: LPS-stimulated BV2 cells; for PGE2 production reduction: LPS-treated BV2 cells. The procedure: (§1) Microglial cells were cultured in 6-well plates at a density of 3×10^6 cells/well. […] The cultures were maintained at 37° C. for 24 and 48 h in a humidified air containing a 5% CO2. PGE2 levels were determined in the supernatant using a competitive binding immunoassay (Cayman Chemical, Ann Arbor, MI, USA) following the manufacturer's instructions. Unstimulated cells were included as a control. PGE2 amount determination in the brain was performed in the tissue extracts, according to the manufacturer's instructions. The optical density was measured at λ=405-420 nm with precision microplate reader and the amount of PGE2 (ng/mL) was calculated using a PGE2 standard curve.

The next data set concerns Iba-1. The data set can be described thus: microglial activation in LPS-treated mice, Iba-1 immunoreactivity and immunoblotting. Format: in vivo. The procedure: The protein concentration in the supernatant was spectrophotometrically determined by Bradford's protein assay (Bradford, 1976). […] Proteins (25 μg/lane) and prestained standards (BioRad Laboratories, Hercules, CA, USA) were loaded on 7% or 12% SDS precast polyacrylamide gels (BioRad Laboratories). After electrophoresis, the resolved proteins were transferred from the gel to nitrocellulose membranes. A blotting buffer [20 mMTris/150 mM glycine, pH=8.0, 20% (v/v) methanol] was used for gel and membrane saturation and blotting. […] Bands were visualized by chemiluminescence detection (Invitrogen, Milan, Italy). The β-actin level was used as a protein loading control. For tissue analysis, obtained bands were normalized to the level of β-actin performed for each cerebral area tested. For cell cultures the bands were normalized to the β-actin level in each experimental condition. […] VM in all the Figures) once a day for 10 days. […] On the seventh day, mice were anesthetized with tribromoethanol (250 mg/Kg, i.p.) and positioned in a stereotactic apparatus (Kopf Instruments, Tujunga, CA, USA). […] Immunohistochemistry was performed following a standard avidin-biotin complex procedure. […]

Data set [2] in a line: Caco-2 monolayer efflux assay, Apparent Permeability (Papp), with or without GLUT-1 inhibitor phloretin. Format: in vitro ADME, Human. To be noted: human, compound alone. On the procedure: (§2) In a monolayer efflux assay, the Apparent Permeability (Papp) in both basolateral to apical [Papp(B→A)] and apical to basolateral [Papp(A→B)] directions was determined for each compound (FIG. 2). Human colonic adenocarcinoma cell line (Caco-2) presents a facilitated transport system at the apical and basolateral surface. Caco-2 cells express high levels of GLUT-1 that are localized to the basolateral membrane and transport glucose to the serosal side.
(§3) The Papp(B→A) flux of each compound alone or in the presence of phloretin, a GLUT-1 inhibitor, has been determined. Since GLUT-1 is express in the basolateral compartment a high B→A flux means that the transport is GLUT-1 mediated because B→A flux represents the active transport.
(§4) A→B flux, which represents the passive transport, has also been determined for each compound (Table 2).
For orientation: Caco-2 monolayers are a common model of the intestinal barrier.

The subject of a further data set is Caco-2 cells. The description is as above. Format: in vitro ADME, Human. To be noted: compound alone. On the procedure:
as §2, §3, §4

A further data set concerns the target COX-1 (Mus musculus (Mouse), UniProt P22437). The data set can be described thus: COX-1 expression in LPS-treated BV2 microglial cells, western blotting. Format: cell-based. On the procedure: Cells were then incubated for different times at 37° C. with LPS, as pro-inflammatory stimulus. Experiments included cells grown in medium alone (control).
The tissue and cell culture lysates were vortexed for 15-20 s and, then, centrifuged at 12,800×g for 20 min. The protein concentration in the supernatant was spectrophotometrically determined by Bradford's protein assay (Bradford, 1976). Protein samples were diluted with sample buffer (0.5 M Tris-HCl pH=6.8, 10% glycerol, 10% (w/v) SDS, 5% 2-mercaptoethanol, 0.05% (w/v) bromophenol blue) and then boiled for 3 min. Proteins (25 μg/lane) and prestained standards (BioRad Laboratories, Hercules, CA, USA) were loaded on 7% or 12% SDS precast polyacrylamide gels (BioRad Laboratories).
After electrophoresis, the resolved proteins were transferred from the gel to nitrocellulose membranes. A blotting buffer [20 mMTris/150 mM glycine, pH=8.0, 20% (v/v) methanol] was used for gel and membrane saturation and blotting. Then, membranes were incubated in the dark with 1 μg/mL mouse monoclonal antibody (MoAb) anti-COX-1 and rabbit polyclonal Ab anti-COX-2 (1:1000) (both from AbCam, Cambridge, UK), rabbit polyclonal Ab anti p-IkB-α (1:200), mouse polyclonal Ab anti β-actin (1:500) (all from Santa Cruz Biotechnology), mouse MoAb anti-glial fibrillary acidic protein (GFAP) (1:200) and mouse mAb anti-ionized calcium-binding adapter molecule-1 (Iba-1) (1:200) (both from Merck Millipore) overnight at 4° C. The membranes were washed with 0.1% Tween 20-PBS (for 20 min, 3 times) and then incubated with the secondary antibody diluted 1:2000 for 60 min. Bands were visualized by chemiluminescence detection (Invitrogen, Milan, Italy). The β-actin level was used as a protein loading control. For tissue analysis, obtained bands were normalized to the level of β-actin performed for each cerebral area tested. For cell cultures the bands were normalized to the β-actin level in each experimental condition.
A general note: A western blot detects proteins with antibodies after separation by electrophoresis.

For data set [3], the system named is PGE2. Put plainly: PGE2 release in brain specimens from LPS-treated mice. Format: in vivo. To be noted: for PGE2 release reduction (%): LPS-treated mice, mofezolac 6 mg/kg i.p.; for PGE2 release (ng/mg tissue): LPS or M+LPS treated mice. On the procedure: On the seventh day, mice were anesthetized with tribromoethanol (250 mg/Kg, i.p.) and positioned in a stereotactic apparatus (Kopf Instruments, Tujunga, CA, USA). […] Sterotaxic injections coordinates were: 2.3 mm dorsal/ventral, 1.0 mm lateral, and 0.5 mm anterior/posterior from the bregma.
as §1

Structures are written as SMILES. Marks after values point to notes of the source that are not given here.

On to `COc1ccc(-c2noc(CC(=O)O)c2-c2ccc(OC)cc2)cc1` [mofezolac, 2-(3,4-bis(4-methoxyphenyl)isoxazol-5-yl)acetic acid], for which the “PGE2 release (ng/ml) at 48 h” value in the data set on PGE2 [1] (0.1 μM inhibitor + LPS) is 0.06 ng/mL; in the data set with PGE2 [1] (0.5 μM inhibitor + LPS) it was 0.03 ng/mL. Moreover, the PGE2 production reduction came to 94% in the data set on PGE2 [1] (at 0.5 μM as printed in the text) and 97% with PGE2 [1] (at 1 μM as printed in the text). The Iba-1 levels result with Iba-1 (immunoblotting, mofezolac + LPS vs LPS alone) is “significantly reduced”. Besides, the Iba-1 immunoreactivity result in the data set on Iba-1 (immunohistochemistry, LPS-injected mice, mofezolac 6 mg/kg i.p., all the tested brain areas) was “reduction of Iba-1 immunoreactivity”. In addition, the basolateral-to-apical permeability (Papp B→A) (in data set [2]; in the data set with Caco-2 cells) was 46.1 ×10⁻⁶ cm/s each time. The apparent permeability from apical to basolateral (Papp A→B) (in general, the apparent permeability from the apical to the basolateral side of a cell layer) in the data set on Caco-2 cells worked out at 41.4 ×10⁻⁶ cm/s. The COX-1 expression levels entry at COX-1 (BV2 cells, 48 h of incubation with LPS, 1 h pre-treated) is recorded as “significantly reduced”. Besides, the COX-1 expression reduction at COX-1 (LPS-activated BV2 cells, independently from its concentration (0.1 and 0.5 μM)) came out at 78%. Moreover, the “PGE2 release reduction (%)” value in the data set on PGE2 [3] (Caudate) came out at 67%; in the data set with PGE2 [3] (Frontal lobe), 49%; in the data set on PGE2 [3] (Hippocampus), 48%; in the data set on PGE2 [3] (Substantia nigra) it was 39%. In addition, the “PGE2 release (ng/mg tissue)” value is listed as 1.84 + 0.035 ^d ng/mg tissue in the data set with PGE2 [3] (Caudate-Putamen), 2.40 ± 0.046 ^d ng/mg tissue in the data set on PGE2 [3] (Frontal lobe), 2.33 ± 0.032 ^d ng/mg tissue in the data set with PGE2 [3] (Hippocampus) and 3.31 ± 0.079 ^d ng/mg tissue in the data set on PGE2 [3] (Substantia nigra).

(Values after patent US12011433B2 (UNIVERSITÁ DEGLI STUDI DI BARI “ALDO MORO”, priority 2016, dated 2024).)
